Reference: ChEMBL document CHEMBL3351524, “Toward fluorescent probes for G-protein-coupled receptors (GPCRs)” (J Med Chem, 2014)
Starred links: 1 amine or outer side, 2 acyl side, 3 side chain; linkers in the order of their positions; H or OH if unused. Non-standard residues stand in square brackets, D forms with d. Residues, ends and D or L forms follow the SMILES beside them. ξ: configuration not given here. *: point of attachment. X1 = O=C(O)C[C@@H](C(=O)[*:2])N(c1ccc([N+](=O)[O-])c2nonc12)[*:1]; NBD = O=[N+]([O-])c1ccc(*)c2nonc12; Nle = CCCC[C@H](N)C(=O)O; ξDab = NCCC(N)C(=O)O; Bz = O=C(c1ccccc1)*

These compounds were tested against C-X-C chemokine receptor type 4 (Homo sapiens, UniProt P61073) (assay: Displacement of [125I]SDF1 from CXCR4 (unknown origin) expressed in CHO cells).
Chain of C-X-C chemokine receptor type 4 (P61073 whole entry): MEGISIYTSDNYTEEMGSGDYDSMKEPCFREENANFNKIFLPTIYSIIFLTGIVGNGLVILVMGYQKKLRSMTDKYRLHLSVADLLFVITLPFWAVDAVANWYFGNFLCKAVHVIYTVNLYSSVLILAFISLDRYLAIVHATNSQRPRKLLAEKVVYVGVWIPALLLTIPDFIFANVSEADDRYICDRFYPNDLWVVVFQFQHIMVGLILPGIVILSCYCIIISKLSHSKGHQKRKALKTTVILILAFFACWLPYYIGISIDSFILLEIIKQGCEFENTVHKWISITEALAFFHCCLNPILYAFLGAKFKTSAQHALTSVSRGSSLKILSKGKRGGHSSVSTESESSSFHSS
Format: cell-based

IC50 [nM]	SMILES
5.2	CC(=O)N[C@@H](CCCNC(=N)N)C(=O)N[C@@H](CCCNC(=N)N)C(=O)N[C@@H](Cc1cccc2ccccc12)C(=O)N[C@H]1CSSC[C@@H](C(=O)N[C@@H](CCCNC(=N)N)C(N)=O)NC(=O)[C@H](CCCNC(N)=O)NC(=O)[C@H](CCCNC(=N)N)NC(=O)[C@H](Cc2ccc(O)cc2)NC(=O)[C@@H]2CCCN2C(=O)[C@@H](CCCCN)NC(=O)[C@H](CCCNC(=N)N)NC(=O)[C@H](CCCNC(N)=O)NC(=O)[C@H](Cc2ccc(O)cc2)NC1=O
6.7	CC(=O)N[C@@H](CCCNC(=N)N)C(=O)N[C@@H](CCCNC(=N)N)C(=O)N[C@@H](Cc1cccc2ccccc12)C(=O)N[C@H]1CSSC[C@@H](C(=O)N[C@@H](CCCNC(=N)N)C(N)=O)NC(=O)[C@H](CCCNC(N)=O)NC(=O)[C@H](CCCNC(=N)N)NC(=O)[C@H](Cc2ccc(O)cc2)NC(=O)[C@@H]2CCCN2C(=O)[C@@H](CCC(=O)O)NC(=O)[C@H](CCCNC(=N)N)NC(=O)[C@H](CCCNC(N)=O)NC(=O)[C@H](Cc2ccc(O)cc2)NC1=O

The compounds below were run against T1, Substance-K receptor (Homo sapiens, UniProt P21452) (assay: Displacement of [3H]GR100679 from NK2 receptor (unknown origin) expressed in CHO/T cells).
T1 sequence (P21452 whole entry): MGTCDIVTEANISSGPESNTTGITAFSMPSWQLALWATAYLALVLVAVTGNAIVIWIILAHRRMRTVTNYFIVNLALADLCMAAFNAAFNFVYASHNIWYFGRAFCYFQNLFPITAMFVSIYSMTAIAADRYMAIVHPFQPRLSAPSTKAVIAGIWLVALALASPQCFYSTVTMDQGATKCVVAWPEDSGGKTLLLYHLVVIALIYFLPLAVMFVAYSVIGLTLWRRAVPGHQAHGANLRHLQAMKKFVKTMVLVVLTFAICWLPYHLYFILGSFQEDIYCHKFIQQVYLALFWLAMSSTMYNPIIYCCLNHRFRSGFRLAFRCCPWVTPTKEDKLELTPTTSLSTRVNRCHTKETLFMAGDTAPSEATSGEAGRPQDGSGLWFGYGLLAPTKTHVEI
Format: cell-based

Ki [nM]	SMILES
1.35	CCCC[C@H](NC(=O)[C@@H]1CCCN1C(=O)[C@H]1CCCN1C(=O)[C@H](Cc1ccccc1)NC(=O)[C@@H](Cc1c[nH]c2ccccc12)NC(=O)[C@H](C)NC(=O)C(CCNc1ccc([N+](=O)[O-])c2nonc12)NC(=O)c1ccccc1)C(N)=O (some centres undefined)
1.45	CCCC[C@H](NC(=O)[C@@H]1CCCN1C(=O)[C@H]1CCCN1C(=O)[C@H](Cc1ccccc1)NC(=O)[C@@H](Cc1c[nH]c2ccccc12)NC(=O)[C@H](C)NC(=O)[C@H](CCCNc1ccc([N+](=O)[O-])c2nonc12)NC(=O)c1ccccc1)C(N)=O
1.58	CCCC[C@H](NC(=O)[C@@H]1CCCN1C(=O)[C@H]1CCCN1C(=O)[C@H](Cc1ccccc1)NC(=O)[C@@H](Cc1c[nH]c2ccccc12)NC(=O)[C@H](C)NC(=O)[C@H](CCCCNCC(=O)Nc1ccc([N+](=O)[O-])c2nonc12)NC(=O)c1ccccc1)C(N)=O
5.89	CSCC[C@H](NC(=O)[C@H](CC(C)C)NC(=O)CNC(=O)[C@@H](NC(=O)[C@H](Cc1ccccc1)NC(=O)[C@H](CO)NC(=O)[C@H](CC(=O)O)NC(=O)[C@@H](NC(=O)[C@H](CCCCN)NC(=O)[C@H](Cc1cnc[nH]1)Nc1ccc([N+](=O)[O-])c2nonc12)[C@@H](C)O)C(C)C)C(N)=O
1950	CCCC[C@H](NC(=O)[C@H](CC(C)C)NC(=O)CNC(=O)C(CCNc1ccc([N+](=O)[O-])c2nonc12)NC(=O)[C@H](Cc1ccccc1)NC(=O)[C@H](CO)NC(=O)[C@H](CC(=O)O)NC(C)=O)C(N)=O (some centres undefined) (Ac-DSF[ξDab](NBD)GL[Nle]-NH2)
0.155	CCCC[C@H](NC(=O)[C@@H]1CCCN1C(=O)[C@H]1CCCN1C(=O)[C@H](Cc1ccccc1)NC(=O)[C@@H](Cc1c[nH]c2ccccc12)NC(=O)[C@H](C)NC(=O)[C@H](C)NC(=O)c1ccccc1)C(N)=O (Bz-AA[dW]F[dP]P[Nle]-NH2)
8.32	CCCC[C@H](NC(=O)[C@H](CC(C)C)NC(=O)CNC(=O)[C@@H](NC(=O)[C@H](Cc1ccccc1)NC(=O)[C@H](CO)NC(=O)[C@H](CC(=O)O)Nc1ccc([N+](=O)[O-])c2nonc12)C(C)C)C(N)=O (H-[X1]SFVGL[Nle]-NH2)
